{"source": "paper PMC6630837", "about": "(Pharmaceuticals, 2019)", "key": {"[1]": {"experiment": "LogD7.4 determination (octan-1-ol/phosphate buffer, LC-MS)", "type": "physicochemical", "conditions": "octan-1-ol/phosphate buffer, pH 7.4, octan-1-ol/phosphate buffer pH 7.4, 25 °C; read-out: Log D7.4 (partition coefficient at pH 7.4)", "protocol": "LogD7.4 determination. The in-silico prediction tool ALOGPS [4] was used to estimate the octanol-water partition coefficients (log P) of the compounds. […] For each category, two different ratios (volume of octan-1-ol to volume of buffer) were defined as experimental parameters (Table 2).\nEqual amounts of phosphate buffer (0.1 M, pH 7.4) and octan-1-ol were mixed and shaken vigorously for 5 min to saturate the phases. The mixture was left until separation of the two phases, and the buffer was retrieved. Stock solutions of the test compounds were diluted with buffer to a concentration of 1 μM. For each compound, three determinations per octan-1-ol:buffer ratio were performed in different wells of a 96-well plate. The respective volumes of buffer-containing analyte (1 μM) were pipetted to the wells and covered by saturated octan-1-ol according to the chosen volume ratio. […] The aqueous phase was transferred to a 96-well plate for analysis by liquid chromatography-mass spectrometry (LCMS, see below).\nResults are presented as the mean ± SD of three independent experiments.\nLC-MS measurements. […] The system was controlled with the Agilent MassHunter Workstation Data Acquisition software (version B.01.04). The column used was an AtlantisR T3 C18 column (2.1 × 50 mm) with a 3 μm-particle size (Waters Corp., Milford, MA, USA). The mobile phase consisted of eluent A: 10 mM ammonium acetate, pH 5.0 in 95:5, H2O:MeCN; and eluent B: MeCN containing 0.1% formic acid. The flow rate was maintained at 0.6 mL/min. […] MS parameters such as fragmentor voltage, collision energy, and polarity were optimized individually for each drug, and the molecular ion was followed for each compound in the multiple reaction monitoring mode. The concentrations of the analytes were quantified by the Agilent Mass Hunter Quantitative Analysis software (version B.01.04)."}, "[2]": {"system": "SH-SY5Y human neuroblastoma cells", "experiment": "Neuroprotection against Aβ1-42-induced toxicity, MTT cell viability assay", "type": "cell-based", "conditions": "50 μM compound, 20 μM Aβ1-42, 24 h, 37 °C", "protocol": "Neuroprotective activity assays against Aβ1-42-induced toxicity. From all compounds tested in the above presented assay, the pair 8 and 19 presented the strongest neuroprotective potential, with convincing proof on the importance of the aglycone for the desired neuroprotective effects against H2O2-induced cell injury. […] Here, the MTT assay was used once again to assess cell viability of SH-SY5Y cells treated with 20 μM of Aβ1-42, in the presence of 50 μM of each compound. Similar protocols have been used to screen candidates for AD therapy. Moreover, based on the existing evidence that in situ spontaneous fibrillization of Aβ1-42 in the incubation mixture is important in the triggering of neurotoxic effects, we added the Aβ1-42 peptide fragment dissolved in DMSO to the culture medium prior to incubation, together with each compound in study. […] Even though there is published evidence that undifferentiated SH-SY5Y cells are not as sensitive to Aβ1-42-induced neurite degeneration and apoptosis as differentiated ones, with 20 μM of Aβ1-42 we were able to observe a significant decrease in cellular MTT reduction capacity, corresponding to roughly half of the cell viability rates observed in the non-treated control.\n(§1) Neuroprotective assays in human neuroblastoma (SH-SY5Y) cells. […] Differences were considered significant when P < 0.05."}, "[3]": {"system": "SH-SY5Y neuroblastoma cells", "experiment": "Cytotoxic activity of compounds alone, MTT cell viability assay", "conditions": "50 μM compound alone, 24 h, 37 °C, 0.5% DMSO, SH-SY5Y", "protocol": "Neuroprotective assays in human neuroblastoma (SH-SY5Y) cells. SH-SY5Y cells were grown in Dulbecco’s Modified Eagle Medium (DMEM, Gibco, Life Technologies) supplemented with 10% fetal bovine serum (FBS, Biochrom GmbH) and 1% Penicillin-Streptomycin (Gibco, Life Technologies) in a humidified incubator at 37 °C, 5% CO2. For the neuroprotective activity assay, undifferentiated SGSY-5Y cells were plated onto 96-well flat-bottomed microtiter plates at a density of 1 × 10^4 cells/well in DMEM supplemented with 2% FBS and preincubated for 24 h at 37 °C, 5% CO2. Compounds (stored as 10 mM solutions in DMSO at −20 °C) were then added to achieve a final concentration of 50 μM and, after 30 min, cells were incubated in the presence or absence of 20 μM Aβ protein fragment 1-42 (Sigma-Aldrich, dissolved in DMSO and stored in 2 mM aliquots at −20 °C) or 100 μM of H2O2 (Sigma-Aldrich, dissolved to 10 mM in 0.9% NaCl aqueous solution immediately prior to the assay) overnight at 37 °C, 5% CO2. […] The following morning, 20 μL of a 5 mg/mL solution of 3-(4,5-dimethylthiazol-2-yl)-2,5-diphenyltetrazolium bromide (MTT, Sigma-Aldrich) in PBS (Gibco, Life Technologies) was added to each well and the plates were further incubated for 4 h at 37 °C, followed by the addition of DMSO (200 μL) to each well in order to dissolve the resulting formazan crystals. After 2 h incubating at 37 °C, the optical density (OD) at 540 nm (with a 620 nm reference filter) was measured in an Amersham Biosciences Biotrak II Plate Reader. The percentage of MTT reduction was determined according to Equation (1). […] Differences between experimental conditions were compared for statistical significance by one-way ANOVA followed by a Tukey’s post-test, an analysis carried out using GraphPad Prism Software (LA Jolla, CA, USA). Differences were considered significant when P < 0.05. In order to exclude direct MTT reduction, compounds were also tested in (a) the absence of cells and (b) in the absence of both cells and culture medium, using the same experimental conditions described above. (2) MTT Reduction (% of Control)=[ODsample−ODmedium/ODcell control−ODmedium] × 100 […]\nTabl e S2. Cytotoxic activity of each compound assessed in SH-SY5Y neuroblastoma cells via an MTT cell viability assay.a Comp ound Nr. MTT reduction (% control) p-va l u e vs . untreated cell control (unpai red t-t es t) […]\na Cells were incubated for 24 h at 37 °C, in the presence (50 μM) or absence of each compound."}, "[4]": {"target": "acetylcholinesterase (AChE) (Electrophorus electricus, UniProt O42275)", "sequence (O42275 24-633)": "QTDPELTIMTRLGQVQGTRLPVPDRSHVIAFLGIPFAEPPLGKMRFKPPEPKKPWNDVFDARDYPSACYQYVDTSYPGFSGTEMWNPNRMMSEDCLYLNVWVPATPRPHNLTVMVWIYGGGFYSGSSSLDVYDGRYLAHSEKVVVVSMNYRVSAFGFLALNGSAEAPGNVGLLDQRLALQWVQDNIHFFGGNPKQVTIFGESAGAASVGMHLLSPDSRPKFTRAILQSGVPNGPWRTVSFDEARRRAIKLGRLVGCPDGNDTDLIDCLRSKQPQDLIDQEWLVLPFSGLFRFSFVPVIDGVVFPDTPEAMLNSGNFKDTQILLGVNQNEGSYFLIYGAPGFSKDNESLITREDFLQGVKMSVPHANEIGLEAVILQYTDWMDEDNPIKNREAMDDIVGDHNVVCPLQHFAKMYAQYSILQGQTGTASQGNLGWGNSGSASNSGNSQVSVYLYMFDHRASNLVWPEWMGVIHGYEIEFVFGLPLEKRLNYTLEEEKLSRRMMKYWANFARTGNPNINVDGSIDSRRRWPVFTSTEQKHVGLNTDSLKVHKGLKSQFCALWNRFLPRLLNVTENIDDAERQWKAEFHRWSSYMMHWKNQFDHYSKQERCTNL", "experiment": "Acetylcholinesterase inhibition, Ellman's colorimetric assay", "type": "biochemical", "conditions": "100 µM compound", "protocol": "For cholinesterase inhibition tests (acetylcholinesterase (AChE, electrophorus\nwas kept within 1.25% cuvette concentration.\nAChE and at 18.2 µM concentration for BuChE. […]"}, "[5]": {"target": "T1, butyrylcholinesterase (BuChE) (Equus caballus, UniProt P81908)", "T1 construct": "(BuChE, equine serum); from tissue; host or cells: equine serum", "T1 sequence (P81908 whole entry)": "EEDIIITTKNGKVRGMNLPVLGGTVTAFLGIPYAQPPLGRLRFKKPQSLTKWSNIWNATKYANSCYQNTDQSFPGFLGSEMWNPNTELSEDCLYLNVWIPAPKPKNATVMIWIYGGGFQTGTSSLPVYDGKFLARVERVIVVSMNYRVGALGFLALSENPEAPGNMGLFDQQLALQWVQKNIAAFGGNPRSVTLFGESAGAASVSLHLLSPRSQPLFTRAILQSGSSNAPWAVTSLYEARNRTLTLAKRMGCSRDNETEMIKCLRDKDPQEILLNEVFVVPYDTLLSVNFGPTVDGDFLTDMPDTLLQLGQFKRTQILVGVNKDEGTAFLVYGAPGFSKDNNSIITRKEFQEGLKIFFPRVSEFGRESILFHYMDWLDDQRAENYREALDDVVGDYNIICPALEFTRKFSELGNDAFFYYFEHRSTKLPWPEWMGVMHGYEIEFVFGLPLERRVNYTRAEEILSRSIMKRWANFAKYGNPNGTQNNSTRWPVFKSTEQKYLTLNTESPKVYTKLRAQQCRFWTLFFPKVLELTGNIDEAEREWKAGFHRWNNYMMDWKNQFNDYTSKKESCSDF", "experiment": "biochemical", "conditions": "read-out: BuChE inhibitory efficacy (percentage of inhibition)", "protocol": "Experimental procedures for cholinesterase inhibition a s sa y s. For cholinesterase inhibition tests (acetylcholinesterase (AChE, electrophorus\nel ec t r ic u s) a n d b ut yr ylcholinesterase (BuChE, equine serum), the Ellman’s cholorimetric assay1 was followed, with minor modifications. DMSO\nwas kept within 1.25% cuvette concentration. The chromogenic agent DTNB [5,5’-dithiobis(2-nitrobenzoic acid)] was fixed at 0.975 mM\ncon centration; 0. 1 M phosphate buffer (pH 8. 0) was employed, T = 25 °C, and the reaction was monitored for 125 s. […]\nof inhibition, the substrate concentration (acetylthiocholine iodide for AChE; S- butyr ylthiocholine iodide for BuChE) was fixed at 29 µM for\nAChE and at 18.2 µM concentration for BuChE.\nLineweaver-Burk plot (or double reciprocal plot, 1/V vs . 1/ [S ]) wa s u se d for estimating both, the mode of inhibition and the inhibition constants […]\nCompetitive inhibition (inhibitor only bonds the free enzyme):\nKKiiii = [II ]KKMM iiaaaa\nM i xe d inhibition (inhibitor binds both, the free and the complexed enzyme) :\nUncompetitive (the inhibitors only binds the complexed enzyme):\nN on -competitive (inhibitor binds both the free enzyme and the complexed enzyme with equal affinity) :\nTable S3. […]\nof the synthesized flavone analogues at 100 µ M.\nC omp ou n d N o. AChE B uChE"}, "[6]": {"system": "SH-SY5Y human neuroblastoma cells", "experiment": "Neuroprotection against H2O2-induced toxicity, MTT cell viability assay", "type": "cell-based", "conditions": "50 μM compound, 100 μM H2O2, 24 h, 37 °C", "from_the_text": "Neuroprotective activity assays against H2O2-induced toxicity. On the basis of previously described protocols, the flavones and analogues herein synthesized were screened for their neuroprotective effects against H2O2-induced oxidative stress and neuronal damage in SH-SY5Y human neuroblastoma cells by means of a thiazolyl blue tetrazolium bromide (MTT) reduction-based cell viability assay.\nas §1"}, "[7]": {"type": "in vitro ADME", "conditions": "PAMPA, pH 7.4, 16 h", "protocol": "Parallel artificial membrane permeability assay (PAMPA). Effective permeability (log Pe) was determined in a 96-well format with PAMPA [34]. For each compound, measurements were performed at pH 7.4 in quadruplicates. Four wells of a deep well-plate were filled with 650 μL of PRISMA HT universal buffer, adjusted to pH 7.4 by adding the requested amount of NaOH (0.5 M). Samples (150 μL) were withdrawn from each well to determine the blank spectra by UV/Vis-spectroscopy (190 to 500 nm, SpectraMax 190, Molecular Devices, Silicon Valley, CA, USA). Then the analyte, dissolved in DMSO (10 mM), was added to the remaining buffer to yield 50 μM solutions. To exclude precipitation, the optical density (OD) was measured at 650 nm, and solutions exceeding OD 0.01 were filtrated. Afterwards, samples (150 μL) were withdrawn to determine the reference spectra. […] The filter membranes at the bottom of the acceptor plate were infused with 5 μL of GIT-0 Lipid Solution and 200 μL of Acceptor Sink Buffer were filled into each acceptor well. The sandwich was assembled, placed in the GutBox^TM, and left undisturbed for 16 h. Then, it was disassembled and samples (150 μL) were transferred from each donor and acceptor well to UV-plates for determination of the UV/Vis spectra."}}, "note": "Entries after “also recorded” stand apart in the source; their conditions may differ.", "data": [{"compound": "O=c1cc(-c2ccc(F)cc2)oc2cc(O)cc(O)c12", "note": "[Compound 7, 4′-Fluoro-5,7-dihydroxyflavone]", "values": [{"measurement": "logD", "setting": "[1]", "value": "> 2.5"}, {"measurement": "Neuroprotective effect against Aβ1-42-induced toxicity (MTT cell viability)", "setting": "[2]", "value": "contrarily"}, {"measurement": "MTT reduction (% control)", "setting": "[3]", "value": "109.4 ± 11.4", "unit": "%"}, {"measurement": "AChE inhibitory efficacy (percentage of inhibition)", "setting": "[4]", "value": "n.i ."}, {"measurement": "inhibition at 100 µM", "setting": "[5]", "value": 23, "unit": "%"}]}, {"compound": "O=c1cc(-c2ccc(N3CCOCC3)cc2)oc2cc(O)cc(O)c12", "note": "[Compound 8, 5,7-Dihydroxy-4′-(morpholin-4-yl)flavone]", "values": [{"measurement": "logD", "setting": "[1]", "value": "> 2.5"}, {"measurement": "Neuroprotective effect against H2O2-induced toxicity (MTT cell viability)", "setting": "[6]", "value": "able to produce statistically significant differences when compared to H2O2 controls"}, {"measurement": "Neuroprotective effect against Aβ1-42-induced toxicity (MTT cell viability)", "setting": "[2]", "value": "displayed relevant neuroprotective effects against Aβ1-42"}, {"measurement": "MTT reduction (% control)", "setting": "[3]", "value": "57.6 ± 25.5", "unit": "%"}]}, {"compound": "O=c1cc(-c2ccc(F)cc2)oc2c([C@@H]3O[C@H](CO)[C@@H](O)[C@H](O)[C@H]3O)c(O)cc(O)c12", "note": "[Compound 18, 4′-Fluoro-8-(β-D-glucopyranosyl)-5,7-dihydroxyflavone]", "values": [{"measurement": "Log Pe (effective permeability)", "setting": "[7]", "value": "no detectable permeability; also recorded: Below detection limit"}, {"measurement": "logD", "setting": "[1]", "value": "-0.2 ± 0.1"}, {"measurement": "MTT reduction (% control)", "setting": "[3]", "value": "136.7 ±12.9", "unit": "%"}]}]}
